Key:
Format in all cases: in vivo
[1] = tested on: MOXIDECTIN-RESISTANT STRAIN OF H. contortus (MOF14); experiment: Effect of verapamil on efficacy of moxidectin and ivermectin in jirds, moxidectin-resistant strain; conditions: for EFFICACY (%) / WORM COUNTS (MEAN ± S.E.): MOF14 in jirds, 7 jirds/group, oral, MOX 0.017 mg/kg, IVM 0.028 mg/kg, VRP 20 mg/kg
[2] = tested on: H. contortus susceptible (PF14) strain; experiment: Efficacy of verapamil with or without ivermectin in jirds, susceptible strain; conditions: for % EFFICACY: SUSCEPTIBLE (PF14) strain in jirds, oral, VRP 20 mg/kg, IVM 0.024 mg/kg
Procedure: (§1) Jirds, which are fed on a standard commercial ration to which 0.02% hydrocortisone has been added 5 days prior to infection, are inoculated with 1000 exsheathed L3 H. contortus. On day 10 after inoculation, the jirds are treated with either water or various doses of moxidectin or ivermectin orally. Each treatment group contains 6 jirds. Probit analyses are used to estimate LD50 levels for each anthelmintic against each strain.
(§2) H. contortus. Verapamil is given concomitantly with ivermectin by the oral route. Table 3. DEM[…] H. contortus […] OR S[…] IN JIRDS (n = # per group)

[3] = tested on: H. contortus moxidectin-resistant (MOF14) strain; experiment: Efficacy of verapamil with or without ivermectin in jirds, moxidectin resistant strain; conditions: for % EFFICACY: MOX-RESISTANT (MOF14) strain in jirds, oral, VRP 20 mg/kg, IVM 0.046 mg/kg
Procedure: as §1, §2

[4] = verapamil 20 mg/kg, resistant worms in jirds (Example 8)

Molecule	EFFICACY (%) [1] [%]	WORM COUNTS (MEAN ± S.E.) [1]	% EFFICACY [2] [%]	% EFFICACY [3] [%]	effect on worm counts ([2]; verapamil alone, 20 to 80 mg/kg oral, jirds infected with susceptible or moxidectin resistant H. contortus)	effect of verapamil on the efficacy of moxidectin [1, 4]	increase in efficacy when verapamil is coadministered with ivermectin [1, 4]	effect of verapamil on the efficacy of ivermectin ([3]; verapamil 20 mg/kg, moxidectin resistant worms in jirds (Example 7))
CO/N=C1\C[C@]2(C[C@@H]3C[C@@H](C/C=C(\C)C[C@@H](C)/C=C/C=C4\CO[C@@H]5[C@H](O)C(C)=C[C@@H](C(=O)O3)[C@]45O)O2)O[C@H](/C(C)=C/C(C)C)[C@H]1C [moxidectin, 23-(O-methyloxime)-LL-F28249α]	70	14 ± 3						
22,23-dihydroavermectin B1 [ivermectin]	80	9 ± 1	54	79				
COc1ccc(CCN(C)CCCC(C#N)(c2ccc(OC)c(OC)c2)C(C)C)cc1OC (centres unmarked) [verapamil]	-73	80 ± 9	17	-53	no significant effect on worm counts	significantly increases the efficacy of moxidectin	not significant	significantly enhances the efficacy of ivermectin

Source: patent EP1832655A2, “Methods for detecting and reversing resistance to macrocyclic lactone compounds” (priority 1997, dated 1998)
